From paper PMC4389257, “Structural basis for full-spectrum inhibition of translational functions on a tRNA synthetase” (Nature Communications, 2015) come the findings set out here.

The test concerns the target T1, human threonyl-tRNA synthetase (ThrRS) (Homo sapiens, UniProt P26639).
T1 construct: gene TARS1
T1 sequence (P26639 322-723): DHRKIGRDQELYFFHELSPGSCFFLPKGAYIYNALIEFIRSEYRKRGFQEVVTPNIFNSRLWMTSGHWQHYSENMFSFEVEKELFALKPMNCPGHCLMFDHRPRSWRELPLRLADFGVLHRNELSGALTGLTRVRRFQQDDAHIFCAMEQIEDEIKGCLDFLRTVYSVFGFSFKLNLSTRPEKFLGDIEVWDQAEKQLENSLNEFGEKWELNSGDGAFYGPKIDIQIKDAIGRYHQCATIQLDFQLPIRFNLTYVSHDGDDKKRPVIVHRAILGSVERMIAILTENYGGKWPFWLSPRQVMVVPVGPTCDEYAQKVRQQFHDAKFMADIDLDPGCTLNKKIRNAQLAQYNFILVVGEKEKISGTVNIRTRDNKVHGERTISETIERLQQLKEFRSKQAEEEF
Kind of test: X-ray co-crystal structure ([…] Å); aminoacylation assay Ki. The format is biochemical.

Take `C[C@@H]1C[C@H](C)C[C@H](C)[C@@H](O)CC(=O)O[C@H]([C@@H]2CCC[C@H]2C(=O)O)C/C=C/C=C(/C#N)[C@H](O)[C@@H](C)C1` [BN, Borrelidin]: the Ki (commonly a measure of affinity in units of concentration, obtained from inhibition or displacement) was approximately 7 nM.
